Laboratory results as given in patent publication US20240180868A1, “PHARMACEUTICAL COMPOSITION FOR PREVENTION OR TREATMENT OF VIRUS INFECTION, THE PHARMACEUTICAL COMPOSITION COMPRISING ROTTLERIN AS ACTIVE INGREDIENT” (QVET, priority 2021, published 2024).

Key:
PRRSV = PRRSV protein expression, fluorescent immunostaining of nucleocapsids; assay type: cell-based; conditions: 10 μM; 48 hours after inoculation
Procedure: To evaluate the inhibitory effect of rottlerin or rottlerin liposomes against PRRSV protein expression, the cells were treated with 5 μM rottlerin liposomes and 10 μM rottlerin, and 48 hours after inoculation, fluorescent immunostaining was performed using primary antibody for PRRSV nucleocapsids and Alexa 488 secondary antibody.

PRRSV FL12 = assay: PRRSV animal model, 4-week-old pigs, intranasal spray; assay type: in vivo; conditions: 1 mg intranasal
Procedure: Validity assessment for target animals were performed using 4-week-old pigs. A total of 15 pigs were used, and randomly distributed into a positive PRRSV FL12 administration group, a rottlerin liposome 100 μg administration group (R-L 100 μg), a rottlerin liposome 1 mg administration group (R-L 1 mg), and a rottlerin raw material 1 mg administration group (R 1 mg), wherein four animals were used for each group (three animals were used for the rottlerin liposome 100 μg administration group).
The pigs of each group were inoculated with 10^5 TCID50/ml FL12, and after the inoculation, 2 ml of each therapeutic agent was intranasally administered by spray.
Sera were separated from the pigs on days 1, 3, 7, 14, and 19, and the pigs were euthanized and necropsied on day 19 of inoculation. The lung tissue of each pig was collected and lesions were evaluated, thereby calculating lung lesion scores. […]
Microscopic lung lesions were measured from 0 to 4 according to the degree of interstitial pneumonia as follows: (0, no lesions; 1, mild lesions or less than half being lesions; 2, common lesions or half being lesions; 3, moderately spread lesions or more than half being lesions; 4, severe lesions or full lesions). […]

CC(=O)c1c(O)c(C)c(O)c(Cc2c(O)c3c(c(C(=O)/C=C/c4ccccc4)c2O)OC(C)(C)C=C3)c1O [rottlerin]
PRRSV virus proteins detected by fluorescent immunostaining (PRRSV): virus proteins were not detected | clinical symptom score (PRRSV FL12; scored daily 0 to 6): significant decrease in clinical symptom score on days 8, 16, 17, and 18 | area under curve (AUC) of viremia, qRT-PCR (PRRSV FL12; vs FL12 group, p≤0.05): significantly lower
